For experiment [1], the system named is HCV genotype 1a (H77 strain) replicon in HUH-7 cells. In words: HCV replicon luciferase reporter assay, genotype 1a. Type of experiment: cell-based. Conditions: Hepatitis C virus, Huh-7, 72 h, HCV genotype 1a replicon luciferase assay, 3 days incubation. In short, it runs like this:
(§1)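 Replicon inhibition for both genotypes was measured as Renilla luciferase signal (EnduRen, 7.5 μM final, 2 h) after 3-day, 37° C exposure of replicon-bearing HUH-7 cells in 4% FCS DMEM, 0.5% DMSO. The 1b construct carries S1179I; the 1a H77 construct carries P1496L and S2204I. Twenty-point, 3-fold dilutions were fitted four-parametrically for EC50, and CC50 was taken from multiplexed Cell Titer-Blue.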
For orientation: In antiviral work, replicon cells carry a viral genome segment that copies itself.

Experiment [2] deals with HCV genotype 1b (Con1) replicon in HUH-7 cells. In words: HCV replicon luciferase reporter assay, genotype 1b. The experiment is classed as cell-based. To be noted: Hepatitis C virus, Huh-7, 72 h, HCV genotype 1b replicon luciferase assay, 3 days incubation. The procedure, abridged: as §1
Where [3] appears, read: range class, read-out: LE_1a (EC50, range).
[4] abbreviates: range class, read-out: LE_1b (EC50, range).

The structures appear in SMILES notation. Where two headings read alike, the source gives them in different places. A value given as a limit tells only on which side of the number the result lay.

As for `COc1cc(F)cc2c(O[C@@H]3C[C@H]4C(=O)N[C@]5(C(=O)NS(=O)(=O)C6CC6)C[C@H]5/C=C\CC[C@@H](C)C[C@@H](C)[C@H](NC(=O)O[C@H](C)C(F)(F)F)C(=O)N4C3)nccc12` [Compound 3170, (R)-1,1,1-trifluoropropan-2-yl ((2R,6S,7R,9R,13aS,14aR,16aS,Z)-14a-((cyclopropylsulfonyl)carbamoyl)-2-((7-fluoro-5-methoxyisoquinolin-1-yl)oxy)-7,9-dimethyl-5,16-dioxo-1,2,3,5,6,7,8,9,10,11,13a,14,14a,15,16,16a-hexadecahydrocyclopropa[e]pyrrolo[1,2-a][1,4]diazacyclopentadecin-6-yl)carbamate], the EC50 in experiment [1] (setting [3]) and in experiment [2] (setting [4]) was < 5.46 nM in each case.
`COc1cc(F)cc2c(O[C@@H]3C[C@H]4C(=O)N[C@]5(C(=O)NS(=O)(=O)C6CC6)C[C@H]5/C=C\CC[C@H](C)C[C@@H](C)[C@H](NC(=O)OCC5(C)CC5)C(=O)N4C3)nccc12` [Compound 3171, (1-methylcyclopropyl)methyl ((2R,6S,7R,9S,13aS,14aR,16aS,Z)-14a-((cyclopropylsulfonyl)carbamoyl)-2-((7-fluoro-5-methoxyisoquinolin-1-yl)oxy)-7,9-dimethyl-5,16-dioxo-1,2,3,5,6,7,8,9,10,11,13a,14,14a,15,16,16a-hexadecahydrocyclopropa[e]pyrrolo[1,2-a][1,4]diazacyclopentadecin-6-yl)carbamate]: the 50% effective concentration (EC50) was 4.82 to 103 nM in experiment [1] (setting [3]) and < 5.46 nM in experiment [2] (setting [4]).
For `COc1cc(F)cc2c(O[C@@H]3C[C@H]4C(=O)N[C@]5(C(=O)NS(=O)(=O)C6CC6)C[C@H]5/C=C\CC[C@@H](C)C[C@@H](C)[C@H](NC(=O)OCC5(C)CC5)C(=O)N4C3)nccc12` [Compound 3172, (1-methylcyclopropyl)methyl ((2R,6S,7R,9R,13aS,14aR,16aS,Z)-14a-((cyclopropylsulfonyl)carbamoyl)-2-((7-fluoro-5-methoxyisoquinolin-1-yl)oxy)-7,9-dimethyl-5,16-dioxo-1,2,3,5,6,7,8,9,10,11,13a,14,14a,15,16,16a-hexadecahydrocyclopropa[e]pyrrolo[1,2-a][1,4]diazacyclopentadecin-6-yl)carbamate], the EC50 was < 5.46 nM in experiment [1] (setting [3]), 1.04 nM in experiment [1] (read-out: LE_1a (EC50)), < 5.46 nM in experiment [2] (setting [4]) and 1.18 nM in experiment [2] (read-out: LE_1b (EC50)).
`COc1cc(F)cc2c(O[C@@H]3C[C@H]4C(=O)N[C@]5(C(=O)NS(=O)(=O)C6(CF)CC6)C[C@H]5/C=C\CC[C@H](C)C[C@@H](C)[C@H](NC(=O)OC(C)(C)C)C(=O)N4C3)nccc12` [Compound 3173, tert-butyl ((2R,6S,7R,9S,13aS,14aR,16aS,Z)-2-((7-fluoro-5-methoxyisoquinolin-1-yl)oxy)-14a-(((1-(fluoromethyl)cyclopropyl)sulfonyl)carbamoyl)-7,9-dimethyl-5,16-dioxo-1,2,3,5,6,7,8,9,10,11,13a,14,14a,15,16,16a-hexadecahydrocyclopropa[e]pyrrolo[1,2-a][1,4]diazacyclopentadecin-6-yl)carbamate]: the half-maximal effective concentration (EC50) in experiment [1] (setting [3]) and in experiment [2] (setting [4]) was 4.82 to 103 nM in each case.
For `COc1cc(F)cc2c(O[C@@H]3C[C@H]4C(=O)N[C@]5(C(=O)NS(=O)(=O)C6(CF)CC6)C[C@H]5/C=C\CC[C@@H](C)C[C@@H](C)[C@H](NC(=O)OC(C)(C)C)C(=O)N4C3)nccc12` [Compound 3174, tert-butyl ((2R,6S,7R,9R,13aS,14aR,16aS,Z)-2-((7-fluoro-5-methoxyisoquinolin-1-yl)oxy)-14a-(((1-(fluoromethyl)cyclopropyl)sulfonyl)carbamoyl)-7,9-dimethyl-5,16-dioxo-1,2,3,5,6,7,8,9,10,11,13a,14,14a,15,16,16a-hexadecahydrocyclopropa[e]pyrrolo[1,2-a][1,4]diazacyclopentadecin-6-yl)carbamate], the EC50 in experiment [1] (setting [3]) and in experiment [2] (setting [4]) was < 5.46 nM throughout.
As for `COc1cc(F)cc2c(O[C@@H]3C[C@H]4C(=O)N[C@]5(C(=O)NS(=O)(=O)C6(CF)CC6)C[C@H]5/C=C\CC[C@H](C)C[C@@H](C)[C@H](NC(=O)OC(C)(C)C(F)(F)F)C(=O)N4C3)nccc12` [Compound 3175, 1,1,1-trifluoro-2-methylpropan-2-yl((2R,6S,7R,9S,13aS,14aR,16aS,Z)-2-((7-fluoro-5-methoxyisoquinolin-1-yl)oxy)-14a-(((1-(fluoromethyl)cyclopropyl)sulfonyl)carbamoyl)-7,9-dimethyl-5,16-dioxo-1,2,3,5,6,7,8,9,10,11,13a,14,14a,15,16,16a-hexadecahydrocyclopropa[e]pyrrolo[1,2-a][1,4]diazacyclopentadecin-6-yl)carbamate], the half-maximal effective concentration (EC50) in experiment [1] (setting [3]) and in experiment [2] (setting [4]) was 4.82 to 103 nM each time.
For `COc1cc(F)cc2c(O[C@@H]3C[C@H]4C(=O)N[C@]5(C(=O)NS(=O)(=O)C6(CF)CC6)C[C@H]5/C=C\CC[C@@H](C)C[C@@H](C)[C@H](NC(=O)OC(C)(C)C(F)(F)F)C(=O)N4C3)nccc12` [Compound 3176, 1,1,1-trifluoro-2-methylpropan-2-yl((2R,6S,7R,9R,13aS,14aR,16aS,Z)-2-((7-fluoro-5-methoxyisoquinolin-1-yl)oxy)-14a-(((1-(fluoromethyl)cyclopropyl)sulfonyl)carbamoyl)-7,9-dimethyl-5,16-dioxo-1,2,3,5,6,7,8,9,10,11,13a,14,14a,15,16,16a-hexadecahydrocyclopropa[e]pyrrolo[1,2-a][1,4]diazacyclopentadecin-6-yl)carbamate], the EC50 in experiment [1] (setting [3]) and in experiment [2] (setting [4]) was < 5.46 nM in each case.
For the compound `COc1cc(F)cc2c(O[C@@H]3C[C@H]4C(=O)N[C@]5(C(=O)NS(=O)(=O)C6(CF)CC6)C[C@H]5/C=C\CC[C@@H](C)C[C@@H](C)[C@H](NC(=O)O[C@H](C)C(F)(F)F)C(=O)N4C3)nccc12` [Compound 3178, (R)-1,1,1-trifluoropropan-2-yl ((2R,6S,7R,9R,13aS,14aR,16aS,Z)-2-((7-fluoro-5-methoxyisoquinolin-1-yl)oxy)-14a-(((1-(fluoromethyl)cyclopropyl)sulfonyl)carbamoyl)-7,9-dimethyl-5,16-dioxo-1,2,3,5,6,7,8,9,10,11,13a,14,14a,15,16,16a-hexadecahydrocyclopropa[e]pyrrolo[1,2-a][1,4]diazacyclopentadecin-6-yl)carbamate], the EC50 is < 5.46 nM in experiment [1] (setting [3]), 3.16 nM in experiment [1] (read-out: LE_1a (EC50)), < 5.46 nM in experiment [2] (setting [4]) and 0.61 nM in experiment [2] (read-out: LE_1b (EC50)).
Take `COc1cc(F)cc2c(O[C@@H]3C[C@H]4C(=O)N[C@]5(C(=O)NS(=O)(=O)C6(CF)CC6)C[C@H]5/C=C\CC[C@H](C)C[C@@H](C)[C@H](NC(=O)OC(C)(C)C(C)(F)F)C(=O)N4C3)nccc12` [Compound 3179, 3,3-difluoro-2-methylbutan-2-yl((2R,6S,7R,9S,13aS,14aR,16aS,Z)-2-((7-fluoro-5-methoxyisoquinolin-1-yl)oxy)-14a-(((1-(fluoromethyl)cyclopropyl)sulfonyl)carbamoyl)-7,9-dimethyl-5,16-dioxo-1,2,3,5,6,7,8,9,10,11,13a,14,14a,15,16,16a-hexadecahydrocyclopropa[e]pyrrolo[1,2-a][1,4]diazacyclopentadecin-6-yl)carbamate]: the EC50 in experiment [1] (setting [3]) and in experiment [2] (setting [4]) was 4.82 to 103 nM throughout.

Usually EC50 stands for the concentration at which the effect is half-maximal.
